Source: ChEMBL document CHEMBL4422609, “Overview of the Development of Glutaminase Inhibitors: Achievements and Future Directions” (J Med Chem, 2019)
One block for each compound: values may come before it.

Legend:
NCI-H2122 [1] = assay: Antitumor activity against human NCI-H2122 cells harboring KRAS mutant xenografted in mouse assessed as tumor growth inhibition relative to control; type: functional
[2] = Inhibition of KGA (unknown origin) using glutamine as substrate preincubated for 20 mins followed by substrate addition and measured after 2 hrs; set-up: species or system Homo sapiens
[3] = Inhibition of KGA (unknown origin); set-up: species or system Homo sapiens
RPMI-8226 [4] = assay: Antitumor activity against human RPMI8226 cells xenografted in mouse assessed as tumor growth inhibition at 1 mg/kg, po administered QD relative to control; type: functional; conditions: RPMI-8226, po, read-out: TGI
[5] = Inhibition of GAC (unknown origin) by fluorescence labeling-based assay; set-up: species or system Homo sapiens
[6] = Inhibition of GAC (unknown origin); set-up: species or system Homo sapiens
JIMT-1 [7] = assay: Antitumor activity against human JIMT1 cells xenografted in mouse assessed as tumor growth inhibition at 10 mg/kg, po administered every other day for 5 doses relative to control; type: functional; conditions: JIMT-1, po, read-out: TGI
NCI-H1650 [8] = assay: Antitumor activity against human NCI-H1650 cells harboring EGFR mutant xenografted in mouse assessed as tumor growth inhibition relative to control; type: functional
NCI-H2122 [9] = assay: Antitumor activity against human NCI-H2122 cells harboring KRAS mutant xenografted in mouse assessed as tumor growth inhibition co-treated with selumetinib relative to control; type: functional
JIMT-1 [10] = assay: Antitumor activity against human JIMT1 cells xenografted in mouse assessed as tumor growth inhibition at 200 mg/kg, po administered BID co-treated with paclitaxel relative to control; type: functional; conditions: JIMT-1, po, read-out: TGI
RPMI-8226 [11] = assay: Antitumor activity against human RPMI8226 cells xenografted in mouse assessed as tumor growth inhibition at 200 mg/kg, po administered BID relative to control; type: functional; conditions: RPMI-8226, po, read-out: TGI
NCI-H1650 [12] = assay: Antitumor activity against human NCI-H1650 cells harboring EGFR mutant xenografted in mouse assessed as tumor growth inhibition co-treated with erlotinib relative to control; type: functional
[13] = Antitumor activity against human CTG-0052 cells xenografted in mouse assessed as tumor growth inhibition at 200 mg/kg, po administered BID relative to control; type: functional; conditions: read-out: TGI
RPMI-8226 [14] = assay: Antitumor activity against human RPMI8226 cells xenografted in mouse assessed as tumor growth inhibition at 200 mg/kg, po administered BID co-treated with pomalidomide relative to control; type: functional; conditions: RPMI-8226, po, read-out: TGI
[15] = Antiproliferative activity against human MDA-MB-231met2 cells; type: functional, cell-based
JIMT-1 [16] = assay: Antitumor activity against human JIMT1 cells xenografted in mouse assessed as tumor growth inhibition at 200 mg/kg, po administered BID relative to control; type: functional; conditions: JIMT-1, po, read-out: TGI

Structure (SMILES): Cn1cnc2c(F)c(Nc3ccc(Br)cc3Cl)c(C(=O)NOCCO)cc21 [SELUMETINIB]
TGI (NCI-H2122 [1]): 49%

IC50 [2]: 160 nM
IC50 [3]: 3000 nM
Structure (SMILES): O=C(Cc1ccccc1)Nc1nnc(CCSCCc2nnc(NC(=O)Cc3ccccc3)s2)s1

Structure (SMILES): Nc1cccc2c1C(=O)N(C1CCC(=O)NC1=O)C2=O (centres undefined) [POMALIDOMIDE]
inhibition in vivo at 1 mg/kg (RPMI-8226 [4]): 46%

IC50 [2]: 100 nM
Structure (SMILES): O=C(Cc1ccccc1)Nc1nnc([C@@H]2CCC[C@@H](c3nnc(NC(=O)Cc4ccccc4)s3)C2)s1 (racemic)

IC50 [5]: 10000 nM
Structure (SMILES): CC1(C)CC(=O)C2=C(C1)c1c(ccc3ccccc13)NC2c1ccc(C(C)(C)C)cc1 (centres undefined)

IC50 [6]: 9300 nM
Structure (SMILES): CN(C)c1ccc(C2Nc3ccc4ccccc4c3C3=C2C(=O)CC(C)(C)C3)cc1Br (centres undefined)

IC50 [5]: 1500 nM
Structure (SMILES): CN(C)c1ccc(C2Nc3ccc4cc5ccccc5cc4c3C3=C2C(=O)CC(C)(C)C3)cc1Br (centres undefined)

IC50 [5]: 4500 nM
Structure (SMILES): CN(C)c1ccc(C2Nc3ccc(C(C)(C)C)cc3C3=C2C(=O)CC(C)(C)C3)cc1Br (centres undefined)

Structure (SMILES): CC(=O)O[C@H]1C(=O)[C@@]2(C)[C@H]([C@H](OC(=O)c3ccccc3)[C@]3(O)C[C@H](OC(=O)[C@H](O)[C@@H](NC(=O)c4ccccc4)c4ccccc4)C(C)=C1C3(C)C)[C@]1(OC(C)=O)CO[C@@H]1C[C@@H]2O [PACLITAXEL]
inhibition in vivo at 10 mg/kg (JIMT-1 [7]): 73%

IC50 [6]: 20000 nM
Structure (SMILES): CC(C)c1ccc(C2Nc3ccc4ccccc4c3C3=C2C(=O)CC(C)(C)C3)cc1 (centres undefined)

IC50 [6]: 20 nM
Structure (SMILES): O=C(Cc1cccc(OC(F)(F)F)c1)Nc1ccc(CCCCc2nnc(NC(=O)Cc3ccccn3)s2)nn1
TGI (NCI-H1650 [8]): 26%
TGI (NCI-H2122 [9]): 78%
inhibition in vivo at 200 mg/kg (JIMT-1 [10]): 100%
inhibition in vivo at 200 mg/kg (RPMI-8226 [11]): 64%
TGI (NCI-H1650 [12]): 89%
inhibition in vivo at 200 mg/kg [13]: 61%
inhibition in vivo at 200 mg/kg (RPMI-8226 [14]): 97%
IC50 [15]: 2 to 300 nM
inhibition in vivo at 200 mg/kg (JIMT-1 [16]): 54%
TGI (NCI-H2122 [1]): 46%

IC50 [6]: 50000 nM
Structure (SMILES): CN(C)c1ccc(C2Nc3ccc4ccccc4c3C3=C2C(=O)CC(C)(C)C3)cc1 (centres undefined)

Structure (SMILES): C#Cc1cccc(Nc2ncnc3cc(OCCOC)c(OCCOC)cc23)c1 [ERLOTINIB]
TGI (NCI-H1650 [8]): 66%
